Experimental data published in patent US20010014462A1, “Direct cholesterol esterase assay” (priority 1997, published 2001).
Like-named read-outs stand apart in the source and are kept apart here. Blank lines part the entries; values can stand above or below the molecule they belong to.

Tests used:
esterase (EC 3.1.1.1) = assay: Microtitre chromogenic detection of esterase, de-ionized H2O (Examples 2 and 3); format: biochemical; settings: for Substrate preference / Speed of chromogenic reactions relative to other BCI substrates: esterase; for Substrate preference: BCI-substrates tested; for Speed of chromogenic reactions relative to other BCI substrates: similar concentration of substrates and enzymes; for Reaction (colour, time to detection): 1 unit esterase, de-ionized H2O
Experimental: 10 μl of esterase (1 unit) was added to substrate samples B, B′, C, C′, D, D′, and E, E′.
Five test samples were prepared.

[1] = tested on: cholesterol esterase (EC3.1.1.13); assay: Microtiter chromogenic detection of cholesterol esterase (Example 7); format: biochemical; settings: for Substrate preference: BCI-substrates tested; for Reaction (colour, time to detection): cholesterol esterase (0.05 U)
[2] = tested on: beta-glucosidase (EC 3.2.1.21); settings: 0.5 units glucosidase
Experimental: The experimental results for Experiments 1-12 are described by the color change of the experimental solution. These colors result from the interaction of the enzyme and substrate with the transfer of an electron to a tetrazolium salt. The reactive product, formazan, is detected as dark blue, black. […] The reaction detected required the enzyme, substrate and tetrazolium salt.
Five test samples were prepared. The samples A, B, C, D, E contained the following reactants:
10 μl of H2O was added to substrate sample A to serve as a control. 10 μl of β-glucosidase (0.5 units) was added to substrate samples B, C, D and E.

[3] = tested on: B-glucuronidase (EC 3.2.1.31); settings: PBS pH 5.0
Experimental: (§3) These colors result from the interaction of the enzyme and substrate with the transfer of an electron to a tetrazolium salt. The reactive product, formazan, is detected as dark blue, black. The BCI substrate without MTT is pale blue. PMS and MTT alone are yellow. PMS and BCI is yellow+blue which is green.
Four test samples were prepared. The samples A, B, C, D contained the following reactants:
10 μl of H2O was added to substrate sample A to serve as a control. 10 μl of β-glucuronidase (10 units) was added to substrate samples B, C, and D.

esterase (EC3.1.1.1) = assay: Microtiter chromogenic detection of esterase, PBS pH 7.4 (Example 1); format: biochemical; settings: 1 unit esterase, visual
Experimental: (§1) The BCI substrate without MTT is pale blue. PMS and MTT alone are yellow. PMS and BCI is yellow+blue which is green.
Four test samples were prepared.

[4] = tested on: esterase activity in elastase preparation; assay: Esterase activity and/or contamination in commercial elastase preparation (Example 5); format: biochemical
Experimental: (§2) Elastase was serially diluted twofold to signal extinction with elastase substrate. The last dilution yielding robust signal was incubated with the competitive inhibitor elastatinal for 10 minutes—with subsequent addition of esterase substrates.

[5] = tested on: Beta-N-acetylglucosaminidase (EC 3.2.1.30); assay: Microtitre chromogenic detection of Beta-N-acetylglucosaminidase (Example 12); format: biochemical; settings: Beta-N-acetylglucoaminidase 0.125 units
Text: as §1

[6] = tested on: neuraminidase (EC 3.2.1.18); assay: Microtitre chromogenic detection of neuraminidase (Example 11); format: biochemical; settings: neuraminidase 0.1 units
Experimental: as §3
10 μl of H2O was added to substrate sample A as the substrate control. 10 μl of neuraminidase (0.1 units) was added to substrate samples B, C, D and E.

[7] = target: chloramphenicol acetyltransferase (EC 2.3.1.28) (Escherichia coli, UniProt P62577); assay: Microtitre chromogenic detection of chloramphenicol acetyltransferase (Example 10); format: biochemical; settings: Chloramphenicol acetyl transferase 5U/10 μl
Chain of chloramphenicol acetyltransferase (EC 2.3.1.28) (P62577 whole entry, looked up): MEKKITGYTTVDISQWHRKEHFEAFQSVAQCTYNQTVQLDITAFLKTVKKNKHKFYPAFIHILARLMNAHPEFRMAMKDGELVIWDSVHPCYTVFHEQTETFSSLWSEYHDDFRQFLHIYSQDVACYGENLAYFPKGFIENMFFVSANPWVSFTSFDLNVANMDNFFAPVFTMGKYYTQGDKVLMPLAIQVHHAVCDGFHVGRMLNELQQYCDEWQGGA
Text: In a preferred assay of the invention, the enzyme chloramphenicol acetyl transferase (CAT enzyme) reacts with chloramphenicol and […] in the presence of the indicator dimethylthiazol tetrazolium (MTT) and phenazine methosulfate (PMS). The MTT serves as a hydrogen acceptor in the reaction. The reaction can be written as:
CAT+chloramphenicol+acyl coA→CAT-chloramphenicol-CoA CAT-chloramphenicol-CoA+PMS→CAT+PMS.H2+acyl-chloramphenicol+HS-CoA PMS-H2+MTT→formazan+PMS.
as §1
Chloramphenicol acetyl transferase (5U/10 μl) was added to each substrate combination.

elastase (EC 3.4.21.36) = target: T1, elastase (EC 3.4.21.36) (Sus scrofa, UniProt P00772); assay: Elastase with elastase substrate, with or without elastatinal (Example 5); format: biochemical
T1 construct: purchased Sigma lot # 17H8005
T1 sequence (P00772 27-266): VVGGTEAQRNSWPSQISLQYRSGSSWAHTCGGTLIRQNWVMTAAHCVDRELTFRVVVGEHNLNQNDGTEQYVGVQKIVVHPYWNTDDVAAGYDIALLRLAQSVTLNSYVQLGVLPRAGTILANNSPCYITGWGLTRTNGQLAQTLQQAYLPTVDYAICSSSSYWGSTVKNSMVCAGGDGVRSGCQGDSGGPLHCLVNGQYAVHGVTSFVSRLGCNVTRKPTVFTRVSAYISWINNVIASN
Experimental: as §2

[8] = tested on: cholesterol oxidase (EC1.1.3.6); assay: Microtitre chromogenic detection of cholesterol oxidase (Example 8); format: biochemical; settings: Cholesterol Oxidase 25 U/ml
Text: as §1

[9] = substrate 5 mg/ml + H2O, PMS (no MTT)
[10] = substrate 5 mg/ml + MTT, H2O (no PMS)
[11] = substrate 5 mg/ml alone (no MTT, no PMS)
[12] = substrate 12.5 mg/ml + H2O, PMS (no MTT)
[13] = substrate 12.5 mg/ml + MTT, H2O (no PMS)
[14] = substrate 12.5 mg/ml + MTT, PMS
[15] = substrate alone (no MTT, no PMS)

Molecule: 5-Bromo-4-chloro-3-indolyl 1,3 diacetate [BCI-1,3 diacetate]
- Substrate preference (esterase (EC 3.1.1.1)): BCI-acetate>BCI-butyrate> BCI-1,3 diacetate
- Speed of chromogenic reactions relative to other BCI substrates (esterase (EC 3.1.1.1)): much slower than the corresponding BCI-acetate and slower than the BCI-butyrate reactions
- Reaction (colour, time to detection) (esterase (EC 3.1.1.1); [9]): yellow-blue
- Reaction (colour, time to detection) (esterase (EC 3.1.1.1); [10]): dark blue (>1 hour)
- Reaction (colour, time to detection) (esterase (EC 3.1.1.1); substrate 5 mg/ml + MTT, PMS): dark blue (>40 minutes)
- Reaction (colour, time to detection) (esterase (EC 3.1.1.1); [11]): pale faint blue
- Substrate preference ([1]; cholesterol esterase): BCI-acetate>BCI-butyrate> BCI-1,3 diacetate

Molecule: 5-Bromo-4-chloro-3-indolyl-B-D-glucoside [BCI-glucoside]
- Reaction (colour, time to detection) [2, 9]: yellow-blue - slight change
- Reaction (colour, time to detection) [2, 10]: dark blue (<5 minutes)
- Reaction (colour, time to detection) ([2]; substrate 5 mg/ml + MTT, PMS): dark blue (<5 minutes)
- Reaction (colour, time to detection) [2, 11]: pale blue (>10 minutes)

Molecule: 5-Bromo-4-chloro-3-indolyl-B-D-glucuronide [BCI glucuronide]
- Reaction (colour, time to detection) ([3]; substrate 10 mg/ml + MTT, H2O (no PMS), 10 units glucuronidase): dark blue (<5 minutes)
- Reaction (colour, time to detection) ([3]; substrate + H2O (no MTT, no PMS), glucuronidase): pale blue (after 5 minutes)
- Reaction (colour, time to detection) ([3]; substrate + H2O, PMS (no MTT), 10 units glucuronidase): yellow-blue - slight change
- Reaction (colour, time to detection) ([3]; substrate + MTT, PMS, 10 units glucuronidase): dark blue (<5 minutes)

- Reaction (colour, time to detection) (esterase (EC3.1.1.1); [12]): yellow-blue - slight change
- Reaction (colour, time to detection) (esterase (EC3.1.1.1); [13]): dark blue < 10 seconds)
- Reaction (colour, time to detection) (esterase (EC3.1.1.1); [14]): dark blue (instantaneous)
- Reaction (colour, time to detection) (esterase (EC 3.1.1.1); [9]): yellow-blue (<30 sec)
- Reaction (colour, time to detection) (esterase (EC 3.1.1.1); [10]): dark blue (<10 sec)
- Reaction (colour, time to detection) (esterase (EC 3.1.1.1); substrate 5 mg/ml + MTT, PMS): dark blue (instant detection)
- Reaction (colour, time to detection) (esterase (EC 3.1.1.1); [11]): pale blue (>10 minutes)
- Reaction with elastase preparation, no inhibitor ([4]; Elastase + H2O, MTT, PMS, BCI-acetate): dark blue (<5 minutes)
- Reaction (colour, time to detection) ([1]; substrate + H2O, PMS (no MTT)): yellow-blue (<30 see)
- Reaction (colour, time to detection) ([1]; substrate + MTT, H2O (no PMS)): dark blue (<10 sec)
- Reaction (colour, time to detection) ([1]; substrate + MTT, PMS): dark blue (instant detection)
- Reaction (colour, time to detection) [1, 15]: pale blue (>10 minutes)
Molecule: CC(=O)Oc1c[nH]c2ccc(Br)c(Cl)c12 [BCI-acetate, 5-Bromo-4-chloro-3-indolyl acetate]
- Substrate preference (esterase (EC 3.1.1.1)): BCI-acetate>BCI-butyrate> BCI-1,3 diacetate
- Substrate preference ([1]; cholesterol esterase): BCI-acetate>BCI-butyrate> BCI-1,3 diacetate

- Reaction (colour, time to detection) [5, 12]: green
- Reaction (colour, time to detection) [5, 13]: light blue formazan reaction
- Reaction (colour, time to detection) [5, 14]: dark blue(<2 minutes)
- Reaction (colour, time to detection) ([5]; substrate 12.5 mg/ml alone (no MTT, no PMS)): light blue (>5 minutes)
Molecule: CC(=O)N[C@H]1[C@H](Oc2c[nH]c3ccc(Br)c(Cl)c23)O[C@H](CO)[C@@H](O)[C@@H]1O [BCI-acetylglucosaminide]

Molecule: CC(=O)N[C@H]1[C@H]([C@H](O)[C@H](O)CO)O[C@@](Oc2c[nH]c3ccc(Br)c(Cl)c23)(C(=O)O)C[C@@H]1O [BCI-acetylneuraminic acid, 5-bromo-4-chloro-3-indolyl acetyl neuraminic acid]
- Reaction (colour, time to detection) ([6]; substrate + H2O, PMS (no MTT)): green
- Reaction (colour, time to detection) ([6]; substrate + MTT, H2O (no PMS)): light blue formazan reaction
- Reaction (colour, time to detection) ([6]; substrate + MTT, PMS): dark blue (>5 minutes)
- Reaction (colour, time to detection) ([6]; substrate in H2O (no MTT, no PMS)): pale blue (<2 minutes)

- Reaction (colour, time to detection) (esterase (EC 3.1.1.1); [9]): yellow-blue (<30 minutes)
- Reaction (colour, time to detection) (esterase (EC 3.1.1.1); [10]): dark blue (<30 minutes)
- Reaction (colour, time to detection) (esterase (EC 3.1.1.1); substrate 5 mg/ml + MTT, PMS): dark blue (<20 minutes)
- Reaction (colour, time to detection) (esterase (EC 3.1.1.1); [11]): pale blue (>1 hour)
- Reaction (colour, time to detection) ([1]; substrate + H2O, PMS (no MTT)): yellow-blue (<30 minutes)
- Reaction (colour, time to detection) ([1]; substrate + MTT, H2O (no PMS)): dark blue (<30 minutes)
- Reaction (colour, time to detection) ([1]; substrate + MTT, PMS): dark blue (<20 minutes)
- Reaction (colour, time to detection) [1, 15]: pale blue (>1 hour)
Molecule: CCCC(=O)Oc1c[nH]c2ccc(Br)c(Cl)c12 [BCI-butyrate, 5-Bromo-4-chloro-3-indolyl-butyrate]
- Substrate preference (esterase (EC 3.1.1.1)): BCI-acetate>BCI-butyrate> BCI-1,3 diacetate
- Speed of chromogenic reactions relative to other BCI substrates (esterase (EC 3.1.1.1)): much slower than the corresponding BCI-acetate reactions
- Substrate preference ([1]; cholesterol esterase): BCI-acetate>BCI-butyrate> BCI-1,3 diacetate
- Speed of chromogenic reactions relative to other BCI substrates ([1]; cholesterol esterase, similar concentration of substrates and enzymes): much slower than the corresponding BCI-acetate reactions

Molecule: O=C(N[C@H](CO)[C@H](O)c1ccc([N+](=O)[O-])cc1)C(Cl)Cl [Chloramphenicol]
- Reaction (colour, time to detection) ([7]; Acetyl CoA + H2O, PMS (no MTT)): orange - red (<2 minutes)
- Reaction (colour, time to detection) ([7]; Acetyl CoA + MTT, H2O (no PMS)): orange detection (>5 minutes)
- Reaction (colour, time to detection) ([7]; Acetyl CoA + MTT, PMS): yellow

Molecule: C[C@H](NC(=O)CCC(=O)O)C(=O)N[C@@H](C)C(=O)N[C@@H](C)C(=O)Nc1ccc([N+](=O)[O-])cc1 [Elastase substrate, N-succinyl-ALA-ALA-ALA p nitroanilide]
- Reaction with elastase, no inhibitor (elastase (EC 3.4.21.36); Elastase + H2O, elastase substrate): yellow

Molecule: CC(C)C[C@H](NC(=O)N[C@H](C(=O)N[C@@H](CCC(N)=O)C(=O)N[C@@H](C)C=O)[C@@H]1CCNC(=N)N1)C(=O)O [Elastatinal]
- Reaction with elastase substrate after incubation with inhibitor (elastase (EC 3.4.21.36); Elastase + Inhibitor, incubated 10 minutes, elastase substrate N-succinyl-ALA-ALA-ALA p nitroanilide): clear (no color >10 min.)
- Reaction with MTT, PMS, BCI-acetate after incubation with inhibitor ([4]; Elastase + Inhibitor, incubated 10 minutes): dark blue (<5 minutes)

- Reaction (colour, time to detection) ([8]; Cholesterol Std 50 mg/dl + H2O, PMS (no MTT)): yellow, no color change
- Reaction (colour, time to detection) ([8]; Cholesterol Std 50 mg/dl + MTT, H2O (no PMS)): yellow, no color change
- Reaction (colour, time to detection) ([8]; Cholesterol Std 50 mg/dl + MTT, PMS): dark blue(<1 minutes)
- Reaction (colour, time to detection) ([8]; Cholesterol Std 50 mg/dl in H2O (no MTT, no PMS)): clear, no color change
Molecule: CC(C)CCC[C@@H](C)[C@H]1CC[C@H]2[C@@H]3CC=C4C[C@@H](O)CC[C@]4(C)[C@H]3CC[C@]12C [cholesterol]
